Data: US9221754B2, “Crystalline forms of zofenopril calcium” (Generics [UK] Limited, priority 2008, dated 2015)
Counter-ions that a name gives are not always drawn.

Tests used:
Type in all cases: physicochemical
[1] = Hygroscopicity of the crystalline forms
[2] = Mechanical stress during particle size reduction (milling using a multimill); details: calcium salt
[3] = Slurry in water (10% w/v) exposed to 50-55° C. for six hours; details: calcium salt
[4] = Pellet compression with an Infrared spectrophotometer press machine; details: pressure exerted ~10 Tons, calcium salt
[5] = Polymorphic purity under dosage form preparation conditions (micronization or wet granulation)

Structure (SMILES) | hygroscopicity [1] | polymorphic stability to mechanical stress (milling), by XRPD, DSC and TGA [2] | polymorphic stability of the water slurry, by XRPD, DSC and TGA [3] | polymorphic stability to compression, by XRPD, DSC and TGA [4] | change in polymorphic purity during dosage form preparation [5]
C[C@H](CSC(=O)c1ccccc1)C(=O)N1C[C@@H](Sc2ccccc2)C[C@H]1C(=O)O [form F, (4S)-1-[(2S)-3-(benzoylthio)-2-methylpropionyl]-4-(phenylthio)-L-proline calcium salt] | non-hygroscopic |  |  |  | 
C[C@H](CSC(=O)c1ccccc1)C(=O)N1C[C@@H](Sc2ccccc2)C[C@H]1C(=O)O [Polymorph E, (4S)-1-[(2S)-3-(benzoylthio)-2-methylpropionyl]-4-(phenylthio)-L-proline calcium salt] | non-hygroscopic | retained its polymorphic composition | no change | identical to that before compression | 
C[C@H](CSC(=O)c1ccccc1)C(=O)N1C[C@@H](Sc2ccccc2)C[C@H]1C(=O)O [form C, (4S)-1-[(2S)-3-(benzoylthio)-2-methylpropionyl]-4-(phenylthio)-L-proline calcium salt] |  |  |  |  | very slight changes in polymorphic purity
